# Patent US20170290774A1, “NEUROKININ-1 RECEPTOR ANTAGONIST COMPOSITION FOR TREATMENT OF DISEASES AND CONDITIONS OF THE RESPIRATORY TRACT” (PLUS VITECH, S.L., priority 2014, published 2017)
# Columns and labels:
# [1] = Saturation concentration of NK1 receptor antagonists in olive oil; format: physicochemical; conditions: 25° C.
# Description: Each of said mixtures was continuously and gently stirred for 10 minutes at ambient temperature (25° C.) and then maintained at rest for 60 minutes. The saturation concentration was considered to be that which was immediately lower in the aforementioned series than a concentration where deposition was observed, but in which no deposition of the active ingredient was observed.
# [2] = Saturation concentration in different oils (soy, sunflower, rapeseed); format: physicochemical; conditions: 25° C.
# Description: Each of said mixtures was continuously and gently stirred for 10 minutes at ambient temperature (25° C.) and then maintained at rest for 60 minutes. The saturation concentration was considered to be that which was immediately less than a concentration where deposition was observed, but in which no deposition of the active ingredient was observed.
# TGFβ3 = assay: Immunohistochemistry of TGFβ3 in respiratory tract tissue of sodium hypochlorite aerosol-treated rabbits; format: in vivo, New Zealand albino rabbits
# Source text: It is known that the factors TGF-α, TGF-β 1, TGF-β 2, TGF-β 3, SPARC, MMP-3; MMP-7, MMP-9, MMP-11, MMP-13 and MMP-14, TGF-β, NF-kB, EGF, MMP-9, VEGF and TNF-α which are produced by lung cells (pneumocytes, fibroblasts and vascular endothelial cells) and inflammatory cells (macrophages, lymphocytes and polymorphonuclear leukocytes) are involved in the pathophysiology and development of said respiratory tract diseases. […] Herein, 27 New Zealand albino rabbits (New Zealand White Rabbit) with an initial average weight about 3 kg were used in this example. All subjects were administered an aerosol of a solution consisting of a mixture of water and sodium hypochlorite (35 g sodium hypochlorite per liter of water) at a rate of 5 mL of said solution by inhalation three times a day for 7 days (days 1 to 7 of experimentation). Subsequently, from days 3 to 7, a group of 3 rabbits (Group 1) was administered an oral dose of 10 mg/kg body weight per day, another group of 3 rabbits (Group 2) was administered an oral dose of 40 mg/kg body weight per day, a third group (Group 3) was administered an oral dose of 80 mg/kg body weight per day and a fourth group (Group 4) was administered an oral dose of 100 mg/kg body weight per day. […] This mixture was administered as an aerosol by inhalation, also from days 3 to 7, to a group of 3 rabbits (group 5) at a dose of 0.05 mg/kg body weight per day, to another group of three rabbits (Group 6) at a dose of 0.1 mg/kg body weight per day, to another group of three rabbits (Group 7) at a dose of 0.2 mg/kg body weight per day and to another group of three rabbits (Group 8) at a dose of 0.4 mg/kg body weight per day. A placebo consisting only of olive oil was administered from days 3 to 7 to a control group of 3 rabbits (placebo group). In parallel, 3 rabbits were kept under identical conditions but were not administered any treatment nor the aforementioned sodium hypochlorite solution (control group). […] On day 7 of the experiment all animals were euthanized and necropsied. […] Samples were taken at the peripheral level of the lung parenchyma, just below the pleural surface. Tissue samples were also taken from the nasal cavity, pharynx, larynx and bronchi. Immunohistochemistry studies were performed for all samples to evaluate the levels of the markers TGF-α, TGF-β 1, TGF-β 2, TGF-β 3 SPARC, MMP-3; MMP-7, MMP-9, MMP-11, MMP-14, TGF-β, TNF-α and VEGF. In said immunohistochemistry studies, a sample of each sample was dehydrated by treatment with increasing concentrations of ethanol and finally xylene. Subsequently said dried samples were embedded in paraffin, thus creating a block. Said paraffin blocks were cut on a microtome to a thickness of 5 μm, and the resulting sections (slices) were placed on slides suitable for conducting immunohistochemistry techniques. Subsequently, the sections were deparaffinised by immersion in xylene and then rehydrated through immersion in a series of solutions containing decreasing concentrations of ethanol and, finally, water. […] The samples were then allowed to cool to room temperature over 10 minutes. Endogenous peroxidase activity was blocked by treatment with 3% hydrogen peroxide over 30 min at room temperature. […] In order to verify the expression of NK1 receptors, the cell samples were incubated in the presence of anti-NK1 antibodies ([…], Sigma-Aldrich) diluted 1:1000 at 4° C. overnight. After this time they were washed in 0.05M Tris buffer at room temperature. Subsequently, Envision System-HRP (Dako) reagents were added for 30 min at room temperature. Once this time had expired, the samples were again washed with 0.05 M Tris buffer, and immunoreactivity was visualized by light microscopy with a chromogenic solution with 3,3'-diaminobenzidine (DAB+; Dako, USA). In order to differentiate the cell nuclei, these were lightly stained with haematoxylin. Samples that were not incubated with the primary antibody, but wherein this was replaced by a non-immune serum were used as negative controls. […]
compound,measurement,setting,value
"C[C@@H](OC1OCCN(Cc2nc(=O)[nH][nH]2)C1c1ccc(F)cc1)c1cc(C(F)(F)F)cc(C(F)(F)F)c1 (stereo in doubt) [Aprepitant, 5-([(2R,3S)-2-((R)-1-[3,5-bis(trifluoromethyl)phenyl]ethoxy)-3-(4-fluorophenyl)morpholino]methyl)-1H-1,2,4-triazol-3(2H)-one]",Saturation concentration,[1],60 nM
same,Saturation concentration,[2]; Rapeseed oil,80 nM
same,Saturation concentration,[2]; Soy oil,60 nM
same,Saturation concentration,[2]; Sunflower oil,70 nM
same,Percent increase in TGFβ3 with respect to the control group,"TGFβ3; bronchial tissue, Group 1, oral 10 mg/kg per day",672.56%
same,Percent increase in TGFβ3 with respect to the control group,"TGFβ3; bronchial tissue, Group 2, oral 40 mg/kg per day",452.45%
same,Percent increase in TGFβ3 with respect to the control group,"TGFβ3; bronchial tissue, Group 3, oral 80 mg/kg per day",345.32%
same,Percent increase in TGFβ3 with respect to the control group,"TGFβ3; bronchial tissue, Group 4, oral 100 mg/kg per day",236.12%
same,% Med G5/C: percent increase in marker TGFβ with respect to the control group,"TGFβ3; bronchial tissue, Group 5",604.34%
same,% Med G6/C: percent increase in marker TGFβ with respect to the control group,"TGFβ3; bronchial tissue, Group 6",439.53%
same,% Med G7/C: percent increase in marker TGFβ with respect to the control group,"TGFβ3; bronchial tissue, Group 7",234.56%
same,% Med G8/C: percent increase in marker TGFβ with respect to the control group,"TGFβ3; bronchial tissue, Group 8",179.19%
same,Percent increase in TGFβ3 with respect to the control group,"TGFβ3; laryngeal tissue, Group 1, oral 10 mg/kg per day","1,234.56%"
same,Percent increase in TGFβ3 with respect to the control group,"TGFβ3; laryngeal tissue, Group 2, oral 40 mg/kg per day","1,009.78%"
same,Percent increase in TGFβ3 with respect to the control group,"TGFβ3; laryngeal tissue, Group 3, oral 80 mg/kg per day",899.98%
same,Percent increase in TGFβ3 with respect to the control group,"TGFβ3; laryngeal tissue, Group 4, oral 100 mg/kg per day",567.89%
same,Percent increase in TGFβ3 with respect to the control group,"TGFβ3; laryngeal tissue, Group 5, inhalation 0.05 mg/kg per day","1,183.45%"
same,Percent increase in TGFβ3 with respect to the control group,"TGFβ3; laryngeal tissue, Group 6, inhalation 0.1 mg/kg per day",702.33%
same,Percent increase in TGFβ3 with respect to the control group,"TGFβ3; laryngeal tissue, Group 7, inhalation 0.2 mg/kg per day",305.32%
same,Percent increase in TGFβ3 with respect to the control group,"TGFβ3; laryngeal tissue, Group 8, inhalation 0.4 mg/kg per day",132.22%
same,Percent increase in TGFβ3 with respect to the control group,"TGFβ3; lung tissue, Group 1, oral 10 mg/kg per day",835.84%
same,Percent increase in TGFβ3 with respect to the control group,"TGFβ3; lung tissue, Group 2, oral 40 mg/kg per day",655.71%
same,Percent increase in TGFβ3 with respect to the control group,"TGFβ3; lung tissue, Group 3, oral 80 mg/kg per day",496.55%
same,Percent increase in TGFβ3 with respect to the control group,"TGFβ3; lung tissue, Group 4, oral 100 mg/kg per day",374.47%
same,Percent increase in TGFβ3 with respect to the control group,"TGFβ3; lung tissue, Group 5, inhalation 0.05 mg/kg per day",775.37%
same,Percent increase in TGFβ3 with respect to the control group,"TGFβ3; lung tissue, Group 6, inhalation 0.1 mg/kg per day",427.90%
same,Percent increase in TGFβ3 with respect to the control group,"TGFβ3; lung tissue, Group 7, inhalation 0.2 mg/kg per day",215.59%
same,Percent increase in TGFβ3 with respect to the control group,"TGFβ3; lung tissue, Group 8, inhalation 0.4 mg/kg per day",169.46%
same,Percent increase in TGFβ3 with respect to the control group,"TGFβ3; nasal cavity tissue, Group 1, oral 10 mg/kg per day","2,813.99%"
same,Percent increase in TGFβ3 with respect to the control group,"TGFβ3; nasal cavity tissue, Group 2, oral 40 mg/kg per day","2,128.24%"
same,Percent increase in TGFβ3 with respect to the control group,"TGFβ3; nasal cavity tissue, Group 3, oral 80 mg/kg per day","1,451.25%"
same,Percent increase in TGFβ3 with respect to the control group,"TGFβ3; nasal cavity tissue, Group 4, oral 100 mg/kg per day","1,188.89%"
same,Percent increase in TGFβ3 with respect to the control group,"TGFβ3; nasal cavity tissue, Group 5, inhalation 0.05 mg/kg per day","2,168.67%"
same,Percent increase in TGFβ3 with respect to the control group,"TGFβ3; nasal cavity tissue, Group 6, inhalation 0.1 mg/kg per day","1,051.06%"
same,Percent increase in TGFβ3 with respect to the control group,"TGFβ3; nasal cavity tissue, Group 7, inhalation 0.2 mg/kg per day",482.03%
same,Percent increase in TGFβ3 with respect to the control group,"TGFβ3; nasal cavity tissue, Group 8, inhalation 0.4 mg/kg per day",158.62%
same,Percent increase in TGFβ3 with respect to the control group,"TGFβ3; pharyngeal tissue, Group 1, oral 10 mg/kg per day",967.72%
same,Percent increase in TGFβ3 with respect to the control group,"TGFβ3; pharyngeal tissue, Group 2, oral 40 mg/kg per day",879.34%
same,Percent increase in TGFβ3 with respect to the control group,"TGFβ3; pharyngeal tissue, Group 3, oral 80 mg/kg per day",659.59%
same,Percent increase in TGFβ3 with respect to the control group,"TGFβ3; pharyngeal tissue, Group 4, oral 100 mg/kg per day",456.45%
same,Percent increase in TGFβ3 with respect to the control group,"TGFβ3; pharyngeal tissue, Group 5, inhalation 0.05 mg/kg per day",879.45%
same,Percent increase in TGFβ3 with respect to the control group,"TGFβ3; pharyngeal tissue, Group 6, inhalation 0.1 mg/kg per day",543.45%
same,Percent increase in TGFβ3 with respect to the control group,"TGFβ3; pharyngeal tissue, Group 7, inhalation 0.2 mg/kg per day",309.45%
same,Percent increase in TGFβ3 with respect to the control group,"TGFβ3; pharyngeal tissue, Group 8, inhalation 0.4 mg/kg per day",112.43%
